Measurements from ChEMBL document CHEMBL5214886, “An appraisal of anti-mycobacterial activity with structure-activity relationship of piperazine and its analogues: A review” (Eur J Med Chem, 2021).
Values after ≈ are worked out from the molar mass of the structure shown.

Assays:
Format in all cases: functional
[1] = system: Mycobacterium tuberculosis; test: Antimycobacterial activity against multi drug resistant Mycobacterium tuberculosis 16833 assessed as reduction in bacterial growth by MABA analysis
[2] = system: Mycobacterium tuberculosis; test: Antimycobacterial activity against multi drug resistant Mycobacterium tuberculosis 16995 assessed as reduction in bacterial growth by MABA analysis
[3] = system: Mycobacterium tuberculosis; test: Antimycobacterial activity against multi drug resistant Mycobacterium tuberculosis assessed as reduction in bacterial growth by two-fold agar dilution method

| SMILES | MIC [1] | MIC [2] | MIC [3] |
| --- | --- | --- | --- |
| O=C(NCc1ccc(N2CCN(c3ccc(F)cc3F)CC2)cc1)c1ccc([N+](=O)[O-])o1 | 4.16 µM (≈ 1.84 µg/mL) | 3.19 µM (≈ 1.41 µg/mL) |  |
| O=C(/C=C(\O)c1cc(Cc2c(F)cc(F)cc2F)cn(Cc2ccccc2F)c1=O)C(=O)N1CCN(c2cccc3ccccc23)CC1 |  |  | ≤ 1.5 µM |
| COc1ccc(N2CCN(c3ccc(CNC(=O)c4ccc([N+](=O)[O-])o4)cc3)CC2)cc1 | 9.16 µM (≈ 4 µg/mL) | 9.16 µM (≈ 4 µg/mL) |  |
| O=C(NCc1ccc(N2CCN(c3ccc(F)cc3)CC2)cc1)c1ccc([N+](=O)[O-])o1 | 7.61 µM (≈ 3.23 µg/mL) | 4.22 µM (≈ 1.79 µg/mL) |  |
| NNC(=O)c1ccncc1 [ISONIAZID] | 0.06 µM (≈ 0.00823 µg/mL) | 0.06 µM (≈ 0.00823 µg/mL) |  |
| CO[C@H]1/C=C/O[C@@]2(C)Oc3c(C)c(O)c4c(O)c(c(/C=N/N5CCN(C)CC5)c(O)c4c3C2=O)NC(=O)/C(C)=C\C=C\[C@H](C)[C@H](O)[C@@H](C)[C@@H](O)[C@@H](C)[C@H](OC(C)=O)[C@@H]1C [RIFAMPIN] | > 48.6 µM | > 48.6 µM |  |
